Among the targets are BIKE (Homo sapiens, UniProt Q9NSY1); BRAF (Homo sapiens, UniProt P15056); MELK (Homo sapiens, UniProt Q14680); OSR1 (Homo sapiens, UniProt O95747).
Holding throughout (conditions): binder
The target of a further test is T1, DCAMKL1 (Homo sapiens, UniProt O15075).
T1 sequence (O15075 1-740): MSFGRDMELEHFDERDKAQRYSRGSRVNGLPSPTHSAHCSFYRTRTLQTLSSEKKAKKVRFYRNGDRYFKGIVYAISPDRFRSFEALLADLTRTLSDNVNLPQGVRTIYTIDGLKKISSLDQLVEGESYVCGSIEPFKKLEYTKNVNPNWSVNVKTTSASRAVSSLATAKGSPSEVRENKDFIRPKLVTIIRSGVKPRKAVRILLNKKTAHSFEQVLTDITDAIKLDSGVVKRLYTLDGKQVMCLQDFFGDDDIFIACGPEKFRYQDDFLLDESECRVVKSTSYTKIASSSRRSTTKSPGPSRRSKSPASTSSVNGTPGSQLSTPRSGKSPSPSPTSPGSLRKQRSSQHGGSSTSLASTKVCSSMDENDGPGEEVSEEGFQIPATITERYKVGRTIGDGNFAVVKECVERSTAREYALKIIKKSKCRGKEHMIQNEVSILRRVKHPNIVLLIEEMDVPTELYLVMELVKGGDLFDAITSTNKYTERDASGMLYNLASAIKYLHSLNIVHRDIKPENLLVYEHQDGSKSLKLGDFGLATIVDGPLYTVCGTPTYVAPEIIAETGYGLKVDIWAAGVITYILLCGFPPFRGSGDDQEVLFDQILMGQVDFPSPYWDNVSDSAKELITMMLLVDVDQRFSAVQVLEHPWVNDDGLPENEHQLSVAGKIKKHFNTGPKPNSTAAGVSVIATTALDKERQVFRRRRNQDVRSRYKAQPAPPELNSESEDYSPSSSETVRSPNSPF

A further test addresses T2, DRAK2 (Homo sapiens, UniProt O94768).
T2 sequence (O94768 1-372): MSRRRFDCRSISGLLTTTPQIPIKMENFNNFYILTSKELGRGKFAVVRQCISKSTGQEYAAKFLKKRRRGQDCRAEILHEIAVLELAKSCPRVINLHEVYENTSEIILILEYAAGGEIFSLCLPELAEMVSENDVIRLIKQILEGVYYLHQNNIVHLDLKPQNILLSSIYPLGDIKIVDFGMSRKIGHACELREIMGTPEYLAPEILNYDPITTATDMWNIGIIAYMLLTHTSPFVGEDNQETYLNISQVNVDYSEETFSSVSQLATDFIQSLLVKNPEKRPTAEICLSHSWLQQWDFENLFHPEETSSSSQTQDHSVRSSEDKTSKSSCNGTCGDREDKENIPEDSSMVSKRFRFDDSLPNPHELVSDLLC

The target in the next test is T3, NQO2A (Homo sapiens, UniProt P16083).
T3 sequence (P16083 1-231): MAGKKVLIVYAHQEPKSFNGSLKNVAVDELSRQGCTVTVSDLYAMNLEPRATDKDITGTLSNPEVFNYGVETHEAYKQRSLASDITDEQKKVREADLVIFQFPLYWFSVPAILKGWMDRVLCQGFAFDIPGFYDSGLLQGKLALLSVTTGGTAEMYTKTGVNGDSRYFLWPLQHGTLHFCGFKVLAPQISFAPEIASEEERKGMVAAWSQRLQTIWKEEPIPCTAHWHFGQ

A further test has as its target T4, PLK4 (Homo sapiens, UniProt O00444).
T4 sequence (O00444 1-970): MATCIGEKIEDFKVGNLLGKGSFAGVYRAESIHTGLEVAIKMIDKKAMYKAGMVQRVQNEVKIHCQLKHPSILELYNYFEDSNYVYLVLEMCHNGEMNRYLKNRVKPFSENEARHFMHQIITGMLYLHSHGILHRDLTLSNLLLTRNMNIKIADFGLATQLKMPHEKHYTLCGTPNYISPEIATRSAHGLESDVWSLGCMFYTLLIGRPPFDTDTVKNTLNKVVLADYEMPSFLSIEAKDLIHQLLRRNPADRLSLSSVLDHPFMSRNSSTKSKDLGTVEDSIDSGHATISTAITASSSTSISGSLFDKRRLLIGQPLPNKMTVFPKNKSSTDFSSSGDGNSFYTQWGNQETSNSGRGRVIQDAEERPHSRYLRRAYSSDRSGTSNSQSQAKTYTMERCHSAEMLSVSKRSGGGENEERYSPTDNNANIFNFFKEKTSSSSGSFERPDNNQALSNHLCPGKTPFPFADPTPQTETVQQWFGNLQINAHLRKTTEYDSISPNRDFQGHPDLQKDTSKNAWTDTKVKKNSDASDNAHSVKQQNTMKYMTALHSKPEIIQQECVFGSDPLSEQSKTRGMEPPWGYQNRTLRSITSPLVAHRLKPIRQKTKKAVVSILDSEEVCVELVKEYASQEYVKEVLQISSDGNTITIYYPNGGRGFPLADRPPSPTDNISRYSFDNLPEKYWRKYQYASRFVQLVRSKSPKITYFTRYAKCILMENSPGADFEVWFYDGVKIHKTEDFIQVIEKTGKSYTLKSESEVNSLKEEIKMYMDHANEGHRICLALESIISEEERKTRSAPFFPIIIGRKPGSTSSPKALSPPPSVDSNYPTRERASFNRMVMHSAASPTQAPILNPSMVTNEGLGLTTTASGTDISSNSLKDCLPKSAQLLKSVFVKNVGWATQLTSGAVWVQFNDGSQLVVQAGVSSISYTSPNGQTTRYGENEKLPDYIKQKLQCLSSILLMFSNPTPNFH

SMILES strings stand for the structures.

Sequence of OSR1 (O95747 whole entry): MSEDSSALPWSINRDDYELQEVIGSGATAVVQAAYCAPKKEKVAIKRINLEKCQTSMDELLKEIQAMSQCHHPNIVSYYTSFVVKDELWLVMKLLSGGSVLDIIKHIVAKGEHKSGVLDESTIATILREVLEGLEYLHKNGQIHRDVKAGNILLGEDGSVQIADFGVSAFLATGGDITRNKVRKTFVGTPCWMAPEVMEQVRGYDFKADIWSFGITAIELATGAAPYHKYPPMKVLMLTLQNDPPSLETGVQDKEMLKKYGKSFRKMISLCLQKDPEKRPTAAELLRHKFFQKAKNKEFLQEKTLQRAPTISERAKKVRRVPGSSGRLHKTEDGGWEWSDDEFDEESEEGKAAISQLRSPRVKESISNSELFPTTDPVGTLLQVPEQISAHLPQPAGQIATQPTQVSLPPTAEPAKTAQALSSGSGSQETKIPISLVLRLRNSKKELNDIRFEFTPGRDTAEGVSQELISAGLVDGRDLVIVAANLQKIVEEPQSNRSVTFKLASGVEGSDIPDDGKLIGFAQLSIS
Sequence of BIKE (Q9NSY1 whole entry): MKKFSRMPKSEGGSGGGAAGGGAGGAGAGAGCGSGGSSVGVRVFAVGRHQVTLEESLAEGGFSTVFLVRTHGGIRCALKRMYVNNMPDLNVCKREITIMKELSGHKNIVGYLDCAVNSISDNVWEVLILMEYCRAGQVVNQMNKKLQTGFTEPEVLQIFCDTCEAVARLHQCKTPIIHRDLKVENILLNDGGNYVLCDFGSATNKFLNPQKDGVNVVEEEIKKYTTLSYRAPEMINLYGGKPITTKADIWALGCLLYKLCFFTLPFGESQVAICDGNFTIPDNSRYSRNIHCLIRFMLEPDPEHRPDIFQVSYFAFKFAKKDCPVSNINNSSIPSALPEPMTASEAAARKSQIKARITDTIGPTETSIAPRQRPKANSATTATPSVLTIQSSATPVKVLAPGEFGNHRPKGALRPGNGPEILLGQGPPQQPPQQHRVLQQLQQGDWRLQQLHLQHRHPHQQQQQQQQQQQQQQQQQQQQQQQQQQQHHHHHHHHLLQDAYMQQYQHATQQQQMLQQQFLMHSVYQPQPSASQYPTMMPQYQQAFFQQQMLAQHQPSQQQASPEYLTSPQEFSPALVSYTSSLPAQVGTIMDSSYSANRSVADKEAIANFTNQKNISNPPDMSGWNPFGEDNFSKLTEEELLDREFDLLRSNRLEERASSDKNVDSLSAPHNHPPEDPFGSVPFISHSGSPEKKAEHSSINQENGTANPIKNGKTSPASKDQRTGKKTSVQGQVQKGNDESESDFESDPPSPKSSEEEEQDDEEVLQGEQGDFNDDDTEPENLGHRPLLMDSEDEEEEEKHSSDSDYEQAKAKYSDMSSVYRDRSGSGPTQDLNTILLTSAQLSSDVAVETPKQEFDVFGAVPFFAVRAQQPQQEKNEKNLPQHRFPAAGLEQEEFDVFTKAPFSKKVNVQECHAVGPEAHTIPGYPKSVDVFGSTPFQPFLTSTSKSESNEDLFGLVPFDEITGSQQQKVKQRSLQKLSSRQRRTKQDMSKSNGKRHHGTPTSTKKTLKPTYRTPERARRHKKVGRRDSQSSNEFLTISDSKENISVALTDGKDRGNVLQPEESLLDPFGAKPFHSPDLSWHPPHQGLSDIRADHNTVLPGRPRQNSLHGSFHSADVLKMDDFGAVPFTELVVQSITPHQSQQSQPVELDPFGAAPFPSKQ
Sequence of BRAF (P15056 whole entry): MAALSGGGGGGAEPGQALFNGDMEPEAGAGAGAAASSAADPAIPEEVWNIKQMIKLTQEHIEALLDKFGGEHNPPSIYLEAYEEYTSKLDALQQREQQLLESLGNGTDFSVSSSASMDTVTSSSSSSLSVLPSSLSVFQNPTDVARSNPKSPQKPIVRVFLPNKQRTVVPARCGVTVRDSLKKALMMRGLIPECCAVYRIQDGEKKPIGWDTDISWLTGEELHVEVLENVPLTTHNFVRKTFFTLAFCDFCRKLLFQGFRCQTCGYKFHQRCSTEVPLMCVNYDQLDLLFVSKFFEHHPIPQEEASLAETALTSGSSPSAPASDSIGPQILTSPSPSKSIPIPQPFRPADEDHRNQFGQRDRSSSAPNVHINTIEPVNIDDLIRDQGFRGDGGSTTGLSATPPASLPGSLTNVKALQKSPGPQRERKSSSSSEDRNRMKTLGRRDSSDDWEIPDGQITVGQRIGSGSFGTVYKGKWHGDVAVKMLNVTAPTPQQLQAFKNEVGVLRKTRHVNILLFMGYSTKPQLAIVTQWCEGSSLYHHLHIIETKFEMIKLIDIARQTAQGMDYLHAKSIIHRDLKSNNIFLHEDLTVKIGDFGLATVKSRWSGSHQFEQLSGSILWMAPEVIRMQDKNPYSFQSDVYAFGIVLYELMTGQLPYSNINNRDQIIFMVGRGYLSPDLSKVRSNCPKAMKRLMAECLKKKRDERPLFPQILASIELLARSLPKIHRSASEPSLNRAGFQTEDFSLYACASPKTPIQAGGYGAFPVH
Sequence of MELK (Q14680 whole entry): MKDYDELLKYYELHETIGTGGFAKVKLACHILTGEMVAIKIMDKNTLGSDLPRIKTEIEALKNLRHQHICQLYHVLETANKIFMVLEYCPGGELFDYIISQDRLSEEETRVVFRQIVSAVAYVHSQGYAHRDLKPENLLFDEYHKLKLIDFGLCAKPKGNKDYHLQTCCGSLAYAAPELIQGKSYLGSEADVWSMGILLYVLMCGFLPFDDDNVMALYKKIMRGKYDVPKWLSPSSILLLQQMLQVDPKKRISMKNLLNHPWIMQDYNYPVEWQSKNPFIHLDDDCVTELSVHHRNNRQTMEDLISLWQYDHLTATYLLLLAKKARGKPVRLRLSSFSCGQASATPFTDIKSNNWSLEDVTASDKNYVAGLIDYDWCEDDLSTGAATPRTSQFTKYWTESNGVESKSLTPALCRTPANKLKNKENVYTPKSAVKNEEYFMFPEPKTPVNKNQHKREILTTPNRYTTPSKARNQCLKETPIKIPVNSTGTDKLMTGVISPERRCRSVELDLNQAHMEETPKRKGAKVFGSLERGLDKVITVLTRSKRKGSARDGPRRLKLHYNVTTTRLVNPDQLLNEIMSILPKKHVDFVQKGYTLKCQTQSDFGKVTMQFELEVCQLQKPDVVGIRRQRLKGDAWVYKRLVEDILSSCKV

In the case of `Cc1cccc(-c2ccc(-c3cc4cnc(Nc5ccc(C)c(O)c5)nc4n(CCCCN)c3=O)c(Cl)c2)n1` [compound 32, 8-(4-Aminobutyl)-6-(2-chloro-4-(6-methylpyridin-2-yl)phenyl)-2-((3-hydroxy-4-methylphenyl)amino)pyrido[2,3-d]pyrimidin-7(8H)-one], the “ΔTm 32” value is 6.6 °C at BIKE; 5.7 °C on BRAF; 1.4 °C at DCAMKL1; 12.2 °C on DRAK2; 7.2 °C on MELK; -0.2 °C at NQO2A. The entries for the “ΔTm 32” value at OSR1 and on PLK4 were 3.1 °C and 11.5 °C, respectively.
Regarding `Cc1cccc(-c2ccc(-c3cc4cnc(Nc5ccc(O)cc5)nc4n(CCCCN)c3=O)c(Cl)c2)n1` [compound 31, 8-(4-Aminobutyl)-6-(2-chloro-4-(6-methylpyridin-2-yl)phenyl)-2-((4-hydroxyphenyl)amino) pyrido[2,3-d]pyrimidin-7(8H)-one], the “ΔTm 31” value on BIKE was 6.5 °C; on BRAF it was 5.0 °C; on DCAMKL1, 1.1 °C; on DRAK2 it was 11.7 °C; at MELK, 6.5 °C; at NQO2A, -0.3 °C. Moreover, the “ΔTm 31” value came to 3.1 °C on OSR1 and 12.2 °C at PLK4.
`Cc1cccc(-c2ccc(-c3cc4cnc(Nc5cc(C(F)(F)F)ccc5C)nc4n(CCCCN)c3=O)c(Cl)c2)n1` [compound 28, 8-(4-Aminobutyl)-6-(2-chloro-4-(6-methylpyridin-2-yl)phenyl)-2-((2-methyl-5-(trifluoromethyl)phenyl)amino)pyrido[2,3-d]pyrimidin-7(8H)-one]: the “ΔTm 28” value at BIKE was 0.3 °C; on BRAF it was 3.2 °C; on DCAMKL1, 0.9 °C; at DRAK2, 8.4 °C; on MELK, 1.8 °C; on NQO2A, -0.7 °C. Moreover, the “ΔTm 28” value on OSR1 turned out to be 0.1 °C; at PLK4, 8.0 °C.
Take `Cc1cccc(-c2ccc(-c3cc4cnc(NCCCN5CCNCC5)nc4n(CCCCN)c3=O)c(Cl)c2)n1` [compound 29, 8-(4-Aminobutyl)-6-(2-chloro-4-(6-methylpyridin-2-yl)phenyl)-2-((3-(piperazin-1-yl)propyl)amino)pyrido[2,3-d]pyrimidin-7(8H)-one]: the “ΔTm 29” value at BIKE was 0.7 °C; on BRAF, 1.5 °C; on DCAMKL1, -1.7 °C; on DRAK2, 4.6 °C; on MELK, 6.5 °C; at NQO2A, 0.3 °C. Further, the “ΔTm 29” value on OSR1 was 0.3 °C; on PLK4, 4.2 °C.
`Cc1cccc(-c2ccc(-c3cc4cnc(Nc5ccc(CCCO)cc5)nc4n(CCCCN)c3=O)c(Cl)c2)n1` [compound 30, 8-(4-Aminobutyl)-6-(2-chloro-4-(6-methylpyridin-2-yl)phenyl)-2-((4-(3-hydroxypropyl)phenyl)amino)pyrido[2,3-d]pyrimidin-7(8H)-one]: the “ΔTm 30” value is 6.4 °C at BIKE; 6.2 °C at BRAF; 2.0 °C at DCAMKL1; 12.3 °C at DRAK2; 7.8 °C at MELK; -0.2 °C at NQO2A. In addition, the “ΔTm 30” value was determined as 2.3 °C at OSR1 and 12.6 °C on PLK4.
For `Cc1cccc(-c2ccc(-c3cc4cnc(NCCCN5CCCC5=O)nc4n(CCCCN)c3=O)c(Cl)c2)n1` [compound 27, MR30], the “ΔTm MR30 (27)” value on BIKE is 0.4 °C; on BRAF, 2.6 °C; at DCAMKL1 it was -1.8 °C; at DRAK2, 0.8 °C; at MELK it was 5.8 °C; on NQO2A it was 0.5 °C. The “ΔTm MR30 (27)” value on OSR1 was -1.1 °C; on PLK4 it was 4.5 °C.

(Values after publication doi:10.1101/2023.11.24.568596v1 (biorxiv, 2023).)
